# In article PMC3420821 (Chemistry & biology, 2011):
# Assays:
# CB2 receptor mRNA = assay: qPCR of CB2 receptor mRNA in primary microglia; type: cell-based, mouse; conditions: 72 hr
# CB2 receptors [1] = conditions: ref Rinaldi-Carmona et al., 1998; cited from earlier work
# CB2 receptors [2] = molecular target: T1, CB2 receptors (Mus musculus, UniProt P47936); type: binding; conditions: saturation, homogenates of CB2-mid DBT cells
# CB2 receptors [3] = molecular target: T1, CB2 receptors; assay: NIR-mbc94 binding competition in intact BV-2 cells; conditions: read-out: Ki (competition for NIR-mbc94 binding)
# T1 sequence (P47936 whole entry): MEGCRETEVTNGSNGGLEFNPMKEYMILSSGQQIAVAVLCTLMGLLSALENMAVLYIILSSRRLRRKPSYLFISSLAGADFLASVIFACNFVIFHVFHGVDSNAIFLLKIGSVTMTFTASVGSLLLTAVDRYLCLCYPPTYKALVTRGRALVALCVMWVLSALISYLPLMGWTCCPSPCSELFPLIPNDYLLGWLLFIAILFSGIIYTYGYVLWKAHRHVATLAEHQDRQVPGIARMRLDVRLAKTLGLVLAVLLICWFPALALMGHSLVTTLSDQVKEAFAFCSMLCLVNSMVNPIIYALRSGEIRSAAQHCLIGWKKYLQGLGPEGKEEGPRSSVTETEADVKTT
compound,measurement,setting,value
IL-4: cytokine that promotes alternative activation phenotype in macrophages/microglia,increase of CB2 receptor mRNA,CB2 receptor mRNA,~ 5 fold
SR144528,affinity at CB2 receptors,CB2 receptors [1],nanomolar affinity
"CCCCCCC(C)(C)c1ccc([C@@H]2C[C@H](O)CC[C@H]2CCCO)c(O)c1 [[^3H]-CP-55,940]",Kd,"CB2 receptors [2]; read-out: Kd of [3H]-CP-55,940",3.1 nM
same,"Bmax of [3H]-CP-55,940",CB2 receptors [2],6 pmol/mg
Cc1c(C(=O)c2cccc3ccccc23)c2cccc3c2n1[C@H](CN1CCOCC1)CO3 [WIN55212-2],Ki,CB2 receptors [3],3 nM
TGFβ,effect on CB2 receptor expression (mRNA),CB2 receptor mRNA,did not affect
